Data on 79 molecules can be found in the METLIN SMRT retention time set (Domingo-Almenara et al. 2019).

The data set is described as follows: gradient 5% acetonitrile 3 min, to 50% in 2 min, to 85% in 15 min, held 3 min, 100 µL/min. Particulars: column: Zorbax Extend-C18 2.1 x 50 mm; eluents: water / acetonitrile, 0.1% formic acid. In outline: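 Using water and acetonitrile that each contained 0.1% formic acid, mixtures of ~100 pure standards were separated at 100 μL/min on a Zorbax Extend-C18 column (2.1 × 50 mm, 1.8 μm). The HPLC fed a quadrupole time-of-flight mass spectrometer working in positive and negative ionization mode, with dead and dwell volumes of 40 μL and 900 μL. Data were acquired over 3 months. Retention time was read from computationally picked adduct peaks after manual inspection of each.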
`CCN1C(=O)CCc2cc(NC(=O)Cc3ccc(OC)cc3Cl)ccc21`: the RP-LC retention time turned out to be 647 s.

Molecule `CC(C)Sc1nccn2nc(-c3cccs3)cc12` registered an RP-LC retention time of 1280 s.

Regarding `CCC(C(=O)NCCCOC)n1c2ccccc2c2cnn(C)c(=O)c21` (centres undefined), the RP-LC retention time was 749 s.

As to `O=C(NCCc1csc2nc(-c3cccs3)nn12)c1ccc(Br)o1`, the RP-LC retention time amounted to 769 s.

For the molecule `CCN(Cc1ccccc1)C(=O)CN1C(=O)C(O)(c2cccc(F)c2)c2ccccc21` (centres undefined), the RP-LC retention time was found to be 655 s.

The molecule `Cc1ccc(-c2nnc(Cc3nc(-c4ccc(F)c(F)c4)no3)o2)cc1F` displayed an RP-LC retention time of 1110 s.

In turn, `Cc1ccc(-c2noc(CN3C(=O)COc4cc(C)ccc43)n2)cc1` came in with an RP-LC retention time of 1130 s.

With `Cc1ccc(CS(=O)Cc2ccc(C(=O)N3CCN(c4ccccn4)CC3)o2)cc1` (centres undefined), the RP-LC retention time was determined as 619 s.

As to `Cc1ccc(S(=O)(=O)Nc2cc(C(=O)O)ccc2N2CCN(c3ccccn3)CC2)cc1`, the RP-LC retention time amounted to 673 s.

For `CCC(C)NC(=O)C1CC(=O)N(c2ccc3c(c2)CCN3C(C)=O)C1` (centres undefined), the RP-LC retention time stood at 630 s.

On to `COc1ccc(-c2nnc(-c3ccc(C)c(S(=O)(=O)NC(C)C)c3)o2)cc1OC`, for which the RP-LC retention time amounted to 873 s.

`O=C(Nc1cccc(-c2nccnc2N2CCOCC2)c1)Nc1ccc(F)c(Cl)c1`: the RP-LC retention time turned out to be 868 s.

In the case of `Cc1sc(NC(=O)C(C)(C)C)nc1-c1ccc2c(c1)NC(=O)C(C)O2` (centres undefined), the RP-LC retention time amounted to 908 s.

`Cc1cc(NC(=O)C2CCCN(c3ccc(-c4ccc(Cl)cc4)nn3)C2)no1` (centres undefined) displayed an RP-LC retention time of 686 s.

In the case of `COc1ccc(C)cc1NC(=O)CCc1cccc2[nH]ccc12`, the RP-LC retention time came to 942 s.

Take `COc1cccc(N2CCN(c3cc(SCC(=O)NCc4ccccc4)ncn3)CC2)c1`: the RP-LC retention time was determined as 891 s.

As to `CCOC(=O)c1[nH]c(C)c(C(=O)C(C)N(CC(C)C)C(=O)c2ccc(C)cc2)c1C` (centres undefined), the RP-LC retention time was determined as 1030 s.

In the case of `COc1ccc(-c2cc(C(=O)N3CCN(S(=O)(=O)c4ccc(Cl)cc4)CC3)[nH]n2)cc1`, the RP-LC retention time was 909 s.

In turn, `COc1ccc(-n2ccc(=O)c(-c3nc(-c4cc(OC)cc(OC)c4)no3)n2)cc1` yielded an RP-LC retention time of 887 s.

In turn, `CCc1ccc(S(=O)(=O)N2CCc3nc(-c4ccc(F)cc4)ncc3C2)cc1` gave an RP-LC retention time of 1190 s.

The molecule `CCc1ccc(NC(=O)Cn2c(=O)n(-c3cccc(C)c3)c(=O)c3c2cc(C)n3C)cc1` showed an RP-LC retention time of 645 s.

For `CCOc1ccc(N2C(=O)C3N=NN(Cc4nc(-c5ccccc5C)no4)C3C2=O)cc1` (centres undefined), the RP-LC retention time came to 1040 s.

The molecule `Cc1ccc(-c2[nH]ncc2CN)cc1` displayed an RP-LC retention time of 562 s.

On to `COC(=O)C(C)NC(=O)NC1CCN(C2=NS(=O)(=O)C(c3ccccc3)=C2C)CC1` (centres undefined), for which the RP-LC retention time amounted to 718 s.

The molecule `Cc1ccc(NS(=O)(=O)c2cc(-c3nc(C(C)(C)C)cs3)cs2)c(C)c1` gave an RP-LC retention time of 1310 s.

`CC1CCCCN1C(=O)Cn1c(CCO)nc2ccccc21` (centres undefined) returned an RP-LC retention time of 583 s.

On to `Cc1nc(C2(C)CCN(S(=O)(=O)c3ccccc3Cl)CC2)no1`, for which the RP-LC retention time is 911 s.

For `CCOCCCNC(=O)c1cc2sc(Cl)cc2n1C`, the RP-LC retention time is 939 s.

For the molecule `Cc1noc(C)c1S(=O)(=O)N1CCC(C(=O)NCCc2csc(-c3cccs3)n2)CC1`, the RP-LC retention time was 858 s.

On to `CCCNC(=O)C1CCN(c2ccc(SCC(=O)Nc3ccc(C)c(F)c3)nn2)CC1`, for which the RP-LC retention time was 679 s.

Take `O=C(CN1C(=O)C2CCCCN2c2ccc(S(=O)(=O)N3CCCC3)cc21)NCCc1ccccc1` (centres undefined): the RP-LC retention time was determined as 966 s.

`CSc1ccc(CNC(=O)c2cn3cc(C)ccc3n2)cc1` yielded an RP-LC retention time of 708 s.

`O=C(Nc1cnn(-c2ncc(N3CCCCC3)cn2)c1)c1ccc(C(F)(F)F)cc1` returned an RP-LC retention time of 1010 s.

As to `CC1(C)COc2ccc(NC(=O)NCc3cccc4ccccc34)cc2NC1=O`, the RP-LC retention time was determined as 602 s.

As for `COc1cc(OC)c(NC(=O)CN2CCC(C(=O)N3CC(C)CC(C)C3)CC2)cc1Cl` (centres undefined), the RP-LC retention time amounted to 730 s.

`CCCc1nc(NCc2cccnc2)ncc1C(=O)O` registered an RP-LC retention time of 569 s.

Regarding `COc1cccc(CNC(=O)COc2ccc(NC(=O)C3CC3)cn2)c1OC`, the RP-LC retention time worked out at 591 s.

As to `Cc1ccc(S(=O)(=O)NCc2c(-c3ccccc3)nc3sc(C)nn23)c(C)c1`, the RP-LC retention time was found to be 922 s.

`COc1ccc(N2CCN(C(=O)c3ccc(-c4ccsc4)nc3)CC2)cc1` yielded an RP-LC retention time of 1160 s.

In the case of `CCc1noc(NC(C)=O)c1-c1ccc(C)c(S(=O)(=O)Nc2ccc(Br)c(C)c2)c1`, the RP-LC retention time is 951 s.

The molecule `Cc1ccc2[nH]cc(CCN3CC(C(=O)Nc4ccc(F)c(Cl)c4)CC3=O)c2c1` (centres undefined) showed an RP-LC retention time of 899 s.

In turn, `O=C(Nc1cccc(Cl)c1)c1cnn2c1CCCC2` registered an RP-LC retention time of 814 s.

The molecule `Cc1ccc(CNC(=O)Cn2c(=O)cc(-c3nc(C4CC4)no3)c3ccccc32)cc1` gave an RP-LC retention time of 950 s.

The molecule `NC(=O)Cn1c(Cc2ccccc2)nc2ccccc21` came in with an RP-LC retention time of 522 s.

Regarding `CCc1cc(OCC(=O)N2CCN(c3ccccn3)CC2)nc2c1c(C)nn2-c1ccc(C)cc1`, the RP-LC retention time came out at 790 s.

For the molecule `Cc1cc(NC(=O)C2CCN(S(=O)(=O)c3cn(C)cn3)CC2)ccc1Br`, the RP-LC retention time amounted to 802 s.

In turn, `COc1ccc(C2C(C(=O)Nc3cccc(C)n3)c3ccccc3C(=O)N2C)cc1` (centres undefined) showed an RP-LC retention time of 791 s.

In turn, `O=C(Cn1cnc2c(nc3n2CCCCC3)c1=O)N1CCN(c2ccc(Cl)cc2)CC1` displayed an RP-LC retention time of 750 s.

On to `Nc1cc(C2CCN(C(=O)c3cc4ccccc4[nH]3)CC2)no1`, for which the RP-LC retention time was 713 s.

Molecule `CCOCC(=O)N1CCC(Oc2nccnc2N(C)C)C1` (centres undefined) came in with an RP-LC retention time of 616 s.

`COc1ccc(-n2ncc3c(=O)n(Cc4nc(-c5cccc(Br)c5)no4)cnc32)cc1` returned an RP-LC retention time of 1110 s.

`Cc1ccccc1Cn1cc(-c2ccncc2)cc1C(=O)NCC1CCCO1` (centres undefined) displayed an RP-LC retention time of 667 s.

On to `Cc1cc2nc(Nc3ncc4c(n3)CC(c3ccccc3)CC4=O)nc(C)c2cc1C` (centres undefined), for which the RP-LC retention time amounted to 793 s.

Take `COc1cccc(CN2CCC3(CCC3O)CC2)n1` (centres undefined): the RP-LC retention time was 569 s.

Molecule `COCCSc1nnc(NC(=O)C2CCN(C(=O)c3ccccc3F)CC2)s1` gave an RP-LC retention time of 680 s.

Regarding `COc1ccc(OC)c(NC(=O)c2cn3c(n2)CSCC3)c1`, the RP-LC retention time came to 767 s.

In the case of `O=C(C1CCN(c2nc3ccsc3c(=O)n2-c2ccccc2)CC1)N1CCN(c2ccccc2)CC1`, the RP-LC retention time came to 917 s.

The molecule `Cc1cc(C(=O)NC2CCCCCC2)n[nH]1` yielded an RP-LC retention time of 724 s.

`CCC(CN1CCOCC1)Nc1nc(-c2ccc(OC)cc2)nc2ccccc12` (centres undefined) had an RP-LC retention time of 570 s.

`COc1cc(NC(=O)CSc2nccc(N3CCN(c4cc(C)ccc4C)CC3)n2)cc(OC)c1` showed an RP-LC retention time of 673 s.

As to `COc1cccc(CC2C(=O)Nc3ccc(Br)cc32)c1OC` (centres undefined), the RP-LC retention time was found to be 842 s.

The molecule `CCN1C(=O)COc2ccc(-c3noc(/C=C/c4ccc(OC)c(OC)c4)n3)cc21` registered an RP-LC retention time of 1050 s.

For the molecule `CCS(=O)(=O)N1N=C(c2cccs2)CC1c1ccc2nccnc2c1` (centres undefined), the RP-LC retention time is 724 s.

For `O=C(Cn1nc2c3cc(-c4ccc(F)cc4)nn3ccn2c1=O)Nc1ccccc1Br`, the RP-LC retention time was determined as 945 s.

With `Cc1cccc(Sc2nccnc2N2CCC(C(=O)N3CCCCCC3)CC2)c1`, the RP-LC retention time came out at 1130 s.

In the case of `CCN1C(=O)C(C)(C(=O)NCc2ccc(F)c(Cl)c2)Oc2cccnc21` (centres undefined), the RP-LC retention time turned out to be 902 s.

Molecule `COC(=O)c1[nH]c2c(c1C)C(=O)CC(c1cc(OC)c(OC)c(OC)c1)C2` (centres undefined) showed an RP-LC retention time of 781 s.

As for `CCOC(=O)c1cc(C2CC2)nc2c1c(=O)n(Cc1ccc(Cl)cc1)c(=O)n2C`, the RP-LC retention time stood at 1260 s.

With `Cc1ccc(C2=NC3(CCN(C(=O)c4cccs4)CC3)ON2)cc1`, the RP-LC retention time is 810 s.

`CC(C)Oc1ccc(C(=O)N[C@H](CNC(=O)CN(C)C)Cc2ccc(-c3cn4cccc([C@H](C)O)c4n3)cc2)cc1Cl` had an RP-LC retention time of 664 s.

`COc1ccccc1NC(=O)CN1CCc2[nH]c3c(OC)ccc(Cl)c3c(=O)c2C1` gave an RP-LC retention time of 638 s.

As to `Fc1ccc(-c2nnc(Cc3nc(-c4ccccc4)no3)o2)cc1`, the RP-LC retention time amounted to 992 s.

`O=C(CCc1nc(-c2ccc(N3CCCCCC3)cc2)no1)N1CCCC1`: the RP-LC retention time was determined as 1080 s.

With `COc1ccc(-c2csc(NC(=O)COc3ccc(Cl)c(Cl)c3)n2)cc1`, the RP-LC retention time was 1200 s.

As to `Cc1ccc(C2Cn3nnc(C(=O)NC4CCCCC4)c3CO2)cc1` (centres undefined), the RP-LC retention time came out at 1050 s.

Take `CC1CCCN(CC2CCN(C(=O)Nc3ccc(Br)cc3)CC2)C1` (centres undefined): the RP-LC retention time is 661 s.

`CNC(=O)C1CCN(c2nc3ccc(-c4ccc(OC)cc4)nc3s2)CC1` gave an RP-LC retention time of 771 s.

`O=C(NCCCN1CCCCC1)c1ccc2c(c1)NC(=O)C1CCCCN21` (centres undefined) gave an RP-LC retention time of 600 s.

For the molecule `Cc1nc([C@@H]2CN(C(=O)c3ccc(Cl)s3)C[C@H]2C(N)=O)n[nH]1`, the RP-LC retention time was 608 s.
